One data set has as its system erythrocytes. As to the kind of experiment: Haemolysis test (haemoglobin release after 1 hour). The settings on record: positive control, 0.2% Triton X-100. The data set is classed as cell-based. As for the experimental part:
A visual examination was carried out to detect the presence/absence of hemagglutination and quantification of haemoglobin release (haemolysis test) by spectrophotometry. ClNH4 was excluded from the dendrimers of previous Example 38, as the result had been more toxic for lymphocytes, and the results were compared with those produced for a PAMAN type generation 4 dendrimer.
The erythrocytes were obtained after being separated from the PBMC using the same Ficoll gradient cited in the previous Example. They were diluted in PBS to be able to view them individually. The cells were resuspended in 500 μl of PBS and were seeded in a 24-well plate (300,000/well). As positive control, cells treated with 0.2% Triton X-100 were used. Negative control: PBS (blank). The erythrocytes were incubated with different dendrimer concentrations. The presence of hemagglutination, number of cells and release of haemoglobin by hour were evaluated by collecting 100 μl of supernatant and measuring absorbencies by spectrophotometry using a plate reader at a wavelength of 550 nm and 690 nm as reference.
100% haemolysis in the control of Triton X-100 (the cells treated with Triton were all dead and broken). […] Each well is expressed as the percentage with respect to the O.D. (optical density) of Triton X-100, which is considered 100%; in addition to that percentage 7% of the control is subtracted. […]

In data set [1] the test system is PBMC. As to the kind of experiment: Lymphoproliferative test (tritiated thymidine). Type of data set: cell-based, human. The following applies: positive control, 1 μg/mL, 5 days, tested 12 times. The protocol: To evaluate the antigenic capacity of CBS dendrimers, a lymphoproliferative test was performed. The experiment was prepared in triplicate in a 96-well flat bottomed plate (100,000 cells per well in 200 μl of complete human AB medium with antibiotics, glutamine and 10% AB serum). […] After 5 days of incubation at 37° C. with 5% atmosphere of CO2 100 μl of supernatant was removed, then adding 100 μL of a medium with an isotopic intercalating agent of DNA, tritiated thymidine (prepared with 10% AB medium and Thymidine 1/100). The plate was then filtered using a Harvester passing its content through a filter, which was left to dry overnight (approx. 16 hours). After this period, a sheet of Methylex® containing scintillation medium was heat-melted, and it was read in a gamma camera to evaluate the number of counts (greater the counts, more proliferation). The results, which are shown below in Table 8, are expressed as tritiated thymidine counts per minute (cpm). Each result of each concentration was performed in triplicate, the value which appears in the table being the average of the 3. The PHA and the control were tested 12 times.

The subject of data set [2] is PBMC. Kind of data set: Flow cytometry test (size and complexity; live cells vs apoptosis-necrosis). The data set is classed as cell-based, human. The following applies: 72 hours, same concentrations as Trypan Blue test. As for the experimental part:
The evaluation time on this occasion was 72 hours. The toxicity was evaluated on PBMC, produced in the manner described in Example 38. […] The ODN used was PPT, in the following way: • [ODN PPT] in the complex with the CBS: 2.57 (0.88 μM) • [ODN PPT] in the complex with SF: 0.34 μM • [ODN PPT] in the complex with G4: 1 μM […] The cells were either incubated with said complexes, a mixture of equal volume which contained ODN without CBS, a mixture which contained dendrimer alone, or with a mixture which contained only RPMI+complete medium which was used as negative control. The cells and/or the supernatant were then collected to be analysed by flow cytometry, confocal microscopy or cell DNA extraction. The percentages of cells with size and complexity corresponding to cells in apoptosis-necrosis were compared with the live cells. For this, the size (FW) and the complexity (SD) was evaluated by flow cytometry. To do this, a region was drawn around the cells with FW and SD corresponding to cells in apoptosis-necrosis and another around the cells with FW and SD corresponding to live cells. The percentages of cells present in each slide were compared. The graphics produced are shown in FIG. 15, wherein the X-axis represents the size (FW) and the Y-axis the complexity (SD). […] The cloud of dark cells corresponds to cells in apoptosis necrosis. The live cells are represented in grey.

In data set [3] the test system is PBMC. As to the kind of experiment: Staining with Trypan Blue of PBMC treated with dendriplexes or dendrimers. The following applies: 72 hours, (+/−)=2/1, IM8 3.93 μM, IM16 1.99 μM, ClNH4 3.98 μM, Phe 1.96 μM, NN 3.94 μM, SF 0.68 μM, G4 100 μM, PPT 0.88 μM (0.34 μM with SF, 1 μM with G4), n = 100 cells per count.
A further data set deals with ODN. As to the kind of experiment: Complex formation between CBS and ODN (agarose gel electrophoresis). The data set is classed as binding. The settings on record: 3% agarose gel, RPMI, excess positive charge (+/−) 2/1 and higher. The text has this: The oligonucleotidic sequences used were antisense sequences (complementary) directed against HIV RNA. The length varied from 15 to 28 bases, being of phosphorothioate nature. The specific ODN used and their sequences are shown below in Table 1.
Several of the ODN were used fluorescent at the 5′ end. This is indicated by adding the letter F to its notation. Thus, “GF” makes reference to the fluorescent anti-gag ODN at end 5′, whilst “RF” makes reference to the anti-Rev ODN fluorescent at end 5′.
Different agarose concentrations were used to show the migration of the ODN and the dendriplexes, bearing in mind the small size of the ODN used. Finally, a 3% agarose concentration in TAE 1× was chosen as the best. The migration of non-fluorescent ODNs was compared with fluorescent ones, both migrating at the same height but the latter increasing the signal perceived considerably. Using them, it thus avoided the isotopic labelling of the ODN. A double well was manufactured to prepare these gels, to permit load volumes of 60 μl, of which 50 μl was mixture volume of the samples in RPMI and 10 μl load buffer with glycerol. As size marker, a ladder of 100 base pairs was used (Gibco BRL®).
For the complex formations in all the tests performed, both on gels and on cells the ratio between the number of positive and negative charges in said complex was taken. As published by different authors in studies with PAMAM dendrimers, it is necessary that the complex formed has an excess positive charge to facilitate its binding to the cell membrane glycoproteins, negatively charged, thus starting the endocytosis process. Likewise, an excess of positive charge is added to ensure the formation of the dendrimer-DNA complex. Therefore, the complexes between the CBS dendrimers and the different nucleic acids were formed in excess number of positive charges (provided by the CBS) compared with negative charges (provided by the ODN). Nevertheless, different charge ratios were tested, making the calculations based in the number of dendrimer charges (fixed) and the number of negative charges of the ODN (also fixed). The 2/1 ratio of positive/negative charges was fixed as sufficient in all dendrimers to form the complexes with a total positive charge, although in some experiments a balance was provided of an equal number of negative charges as positive charges or excess negative charges.
In all the tests, a complex formation volume of 60 μl was used, using phenol red without RPMI serum as support medium.
Tests of complex formation were used with the dendrimers of the invention IM8, ClNH4, NN, Phe and IM16.
The synthesis process of the CBS used in this work begins from an initial nucleus of common structure, which is ended functionalizing in the periphery by the use of different functional groups, which are those which provide the positive charge to the dendrimer and determine the differences between themselves, the dendrimeric nucleus being of apolar nature. Since some of the bonds of the functional groups used to the dendrimeric nucleus could be unstable in aqueous solution, tests were performed to determine if the DNA retention in agarose gels and, therefore, the complex formation between the CBS and the DNA could be due to the total dendrimer structure being conserved or in contrast, the terminal functional groups came away from the moiety of the dendrimeric core which are responsible for the DNA retention. For this, gels were used in which complexes were formed between the ODNs and the integral CBS and those formed supposedly between the ODNs and the terminal functional groups with which the carbosilane skeleton had functionalized, in this case quaternized dimethylethanolamine. As has previously been commented, those positively charged molecules, which are bound to the dendrimer as terminal functional groups, are those which give the dendrimer its charge. As control, the mixtures of ODN-dendrimers, ODN-monomers and ODN alone were compared. […]

On to Triton X-100, for which the haemolysis in the data set with erythrocytes stood at 100%.
For the substance “phytohemagglutinin [PHA, reference compound]”, in the data set with PBMC [1], the “Measurement of the scintillation counter (tritiated thymidine counts)” value is 10267 cpm.
Turning to “PPT: antisense phosphorothioate ODN against HIV mRNA, AATTTTCTTTTCGCCCCT (SEQ ID NO: 3), 18 bases [reference compound]”, in the data set with PBMC [2], the “Apoptosis-necrosis (%)” value was determined as 23% and the “Live cells (%)” value is 71%. Further, the “TB+ (%), cells stained with Trypan Blue” value in the data set on PBMC [3] was found to be 11.9%.
For “quaternized dimethylethanolamine [monomers, reference compound]”, the “complex formation with ODN (retention of DNA migration in gel)” value with ODN is “not being capable”.
